From patent US11911356B2, “Regulation of mutant TERT by BRAF V600E/map kinase pathway through FOS/GABP in human cancer” (THE JOHNS HOPKINS UNIVERSITY, priority 2017, dated 2024)

Legend:
MYC expression = assay: Western blotting of MYC in BRAF V600E cancer cell lines; assay type: cell-based, human; conditions: four cancer cell lines harboring BRAF V600E; 0.5 uM PLX4032, 24 hours
Description: FIG. 3A-3C. MYC regulated TERT expression in a TERT promoter mutation-independent manner. (FIG. 3A) The four indicated cancer cell lines harboring BRAF V600E mutation were treated with 0.5 uM PLX4032 and/or 10 nM MYC-specific siRNA (siMYC) for 24 hours, which were then subjected to Western blotting (upper panel) and qRT-PCR (lower panel). The relative TERT mRNA expression was normalized to the control group. (FIG. 3B, 3C) Parental and BRAF V600E knock-in SW48 cells were treated with control siRNA (siControl) or MYC-specific siRNA (siMYC, 10 nM) for 48 h, followed by Western blotting (FIG. 3B) and luciferase reporter assays (FIG. 3C). *P<0.05, **P<0.01, ***P<0.001, by 2-tailed Student's t test. n.s., not significant. All the values represent the average standard deviation (SD) of triplicate samples from a typical experiment. Similar results were obtained in two additional independent experiments.
(§1) Cells were lysed in the RIPA buffer (#sc-24948; Santa Cruz Biotechnology, Santa Cruz, CA) with protease inhibitor cocktail (#P8340; Sigma-Aldrich) and phosphatase inhibitor cocktail (#P0044; Sigma-Aldrich) and Western blotting analysis was performed as we previously described^54. […] Signals were detected by SuperSignal™ West Pico PLUS Chemiluminescent Substrate (#34579; Thermo Fisher Scientific). […]

FOS phosphorylation = assay: Western blotting of phosphorylated FOS in K1 and A375 cells; assay type: cell-based, human; conditions: 0.5 uM PLX4032 for 0, 1 and 24 hours
Description: FIG. 6A-6J. BRAF V600E promoted FOS binding to GABPB by upregulating FOS phosphorylation. (FIG. 6A) Western blotting analyses for phosphorylated-FOS (p-FOS), total FOS (t-FOS), BRAF, and beta-actin in K1 and A375 cells with or without stable BRAF knockdown. (FIG. 6B) Western blotting analyses of p-FOS, t-FOS, p-ERK, and beta-actin in K1 and A375 cells treated with 0.5 uM PLX4032 for 0, 1, and 24 hours. (FIG. 6C-6E) Effects of FOS phosphorylation on GABPB and TERT activation. (FIG. 6C) KAT18 cells were serum-starved for 24 hours and transiently transfected with FOS wild-type (FOS-wt) or mutant (FOS-mut) bearing none of the potential ERK-targeted phosphorylation sites, followed by Western blotting analysis for TERT, GABPB, p-FOS, t-FOS, and beta-actin. (FIG. 6D) KAT18 cells were transfected with FOS-wt or FOS-mut along with GABPB 5′-UTR luciferase reporter and Renilla luciferase (pRL-TK) plasmids in the absence of serum for 24 hours, and the luciferase activities were then measured. […]
as §1

Q: CCCS(=O)(=O)Nc1ccc(F)c(C(=O)c2c[nH]c3ncc(-c4ccc(Cl)cc4)cc23)c1F [PLX4032] was tested. Which MYC expression (MYC expression) did it give?
A: suppressed MYC expression

Q: What about the “phosphorylation of FOS” value (FOS phosphorylation) of the same compound?
A: significantly decreased the phosphorylation of FOS
